The test system of data set [1] is P. falciparum stage V gametocytes. Put plainly: Gametocytocidal ATP bioluminescence assay (single point 5 μM and 1 μM, dose-response). Format: cell-based, Plasmodium falciparum. The note with it: for Ratio IC50 HepG2/IC50 P. falciparum: IC50 HepG2 divided by IC50 P. falciparum gametocytes; for % Inhibition: 5 μM single concentration, 48 h, decrease of ATP level (S1 Table).
Method: Purified stage IV-V gametocytes were obtained as previously described [10]. Single point ATP bioluminescence assay and dose–response of positive hits was determined in accordance with the previously published protocol [10].

The nature of data set [2]: Cytotoxicity in HepG2 cells (intracellular ATP, ATPlite, 48 h). The data set is classed as cell-based, human. The conditions noted are these: human, HepG2 cells, IC50 per ratio column head, unit inferred; for IC50 at 48 h: read-out: Cytotoxicity in HepG2.
In data set [3] the test system is P. falciparum asexual stages. The note with it: asexual stages; TCAMS data; read-out: IC50 asexual; cited from earlier work.
Data set [4] relates to P. falciparum stage V gametocytes. Put plainly: microbe, parasite or virus in culture. On the set-up: BacTiter-Glo ATP luminescence viability of purified stage V gametocytes in 384-well plates, per cent inhibition versus DMSO. The conditions noted are these: Plasmodium falciparum, 48 h, read-out: % Inhibition.
The test system of data set [5] is HepG2 cells. Nature of the data set: Cytotoxicity in HepG2 cells (intracellular ATP, ATPlite, 48 h). Format: cell-based, human. The note with it: HepG2 cells; IC50 per ratio column head; unit inferred. On the technique in general: In ATP-based viability assays light output follows the ATP content of the culture.
[6] abbreviates: Plasmodium falciparum, P. falciparum gametocytes, average, read-out: IC50 Pf Gametocytes average, IC50 (µM) average.
Setting [7] is: sexual stages (gametocytes), dose-response, read-out: IC50 sexual.
[8] abbreviates: P. falciparum gametocytes, average, read-out: IC50 Pf Gametocytes average, IC50 (µM) average.

Where two headings read alike, the source gives them in different places.

On to `Cl.c1ccc2c(Nc3ccc(Cc4ccc(Nc5c6ccccc6nc6ccccc56)cc4)cc3)c3ccccc3nc2c1` [TCMDC-137354], for which the “Ratio IC50 HepG2/IC50 P. falciparum” value in data set [1] is recorded as 2. The IC50 was 2.3 µM in data set [1] (setting [6]) and 162 nM in data set [3]. Besides, the IC50 at 48 h in data set [2] is 4490 nM.

For orientation: inhibition means the relative decrease from the control value, in per cent. One may read the % Inhibition as the drop in the measured response relative to a control, in per cent. For the compound `Fc1ccc2c(NN=Cc3ccc(Cl)cc3)ccnc2c1` [TCMDC-142097], the inhibition at 5 µM in data set [4] came out at 61.1%. In addition, the “% Inhibition” value in data set [1] (P. falciparum gametocytes) is 61%.

`COc1ccc(CCNc2nc(NCc3ccccc3)c3cc(OC)c(OC)cc3n2)cc1OC` [TCMDC-132017]: in data set [1], the “Ratio IC50 HepG2/IC50 P. falciparum” value is 0.818. The figures for the IC50 in data set [1] (setting [6]) and in data set [3] were 5.6 µM and 326 nM, respectively. Further, the IC50 at 48 h in data set [2] amounted to 4580 nM.

As to `Cl.c1ccc2c(NCCCCCCCCCNc3c4ccccc4nc4ccccc34)c3ccccc3nc2c1` [TCMDC-124286], in data set [1], the “Ratio IC50 HepG2/IC50 P. falciparum” value was determined as 4. Moreover, the IC50 was 1.5 µM in data set [1] (Plasmodium falciparum, read-out: IC50 Pf Gametocytes average, IC50 (µM) average); 1.5 µM in data set [1] (setting [7]); 6100 nM in data set [2]; 298 nM in data set [3].

For `O=[N+]([O-])c1cccc(/C=N/Nc2ccnc3cc(F)ccc23)c1` [TCMDC-142098], in data set [4], the inhibition at 5 µM amounted to 42.1%. Moreover, the “% Inhibition” value in data set [1] (P. falciparum gametocytes) amounted to 42%.

On to `CC(C)c1ccc(CN2CCC(CNC(=O)c3cc(-c4cccc(F)c4)cs3)C2)cc1` (stereo not drawn) [TCMDC-134437], for which the “Ratio IC50 HepG2/IC50 P. falciparum” value in data set [1] worked out at 12. Further, the IC50 in data set [1] (setting [6]) was 0.45 µM; in data set [1] (setting [7]), 0.455 µM; in data set [3], 1660 nM. In addition, the IC50 at 48 h in data set [2] turned out to be 5300 nM.

Turning to `Nc1c(I)cc(C(=O)Nc2ccc3nc4c(c(N)c3c2)CCCC4)cc1I` [TCMDC-142289], the inhibition at 5 µM in data set [4] is 108%. Also, the “Ratio IC50 HepG2/IC50 P. falciparum” value in data set [1] is 20. For the same compound, the figures for the IC50 in data set [1] (setting [8]), in data set [5] and in data set [3] were 0.41 µM, 8030 nM and 143 nM, respectively.

As for `CCCCCCCCN1CCN(CCCCCCNc2c3ccccc3nc3ccccc23)CC1` [TCMDC-138015], the “Ratio IC50 HepG2/IC50 P. falciparum” value in data set [1] turned out to be 12. In addition, the IC50 in data set [1] (setting [6]) was 0.25 µM; in data set [3], 162 nM. The IC50 at 48 h in data set [2] worked out at 3100 nM.

As for `COc1ccc2nc3cc(Cl)ccc3c(NCCCCN3CCNCC3)c2c1` [TCMDC-137578], the “Ratio IC50 HepG2/IC50 P. falciparum” value in data set [1] is 7.58. Further, the IC50 in data set [1] (setting [6]) is 0.66 µM; in data set [3], 183 nM. For the same compound, the IC50 at 48 h in data set [2] stood at 5000 nM.

Consider `Nc1cc(/C=C/c2ccc([N+](=O)[O-])s2)nc2ccccc12` [TCMDC-142296], for which, in data set [4], the inhibition at 5 µM was 111%. Besides, the “Ratio IC50 HepG2/IC50 P. falciparum” value in data set [1] came to 13. The IC50 in data set [1] (setting [8]) is 0.6 µM; in data set [1] (setting [7]), 0.595 µM; in data set [5], 7600 nM; in data set [3] it was 760 nM.

Regarding `COc1ccc2c(NN=CC=Cc3ccccc3)cc(C)nc2c1` [TCMDC-142096], the inhibition at 5 µM in data set [4] was 34%. Moreover, in data set [1] (P. falciparum gametocytes), the “% Inhibition” value is listed as 34%.

Turning to `c1ccc(CN2CCN(CCCCNc3c4ccccc4nc4ccccc34)CC2)cc1` [TCMDC-138009], in data set [1], the “Ratio IC50 HepG2/IC50 P. falciparum” value was found to be 12. Moreover, the IC50 is 0.79 µM in data set [1] (setting [6]), 0.795 µM in data set [1] (setting [7]) and 117 nM in data set [3]. The IC50 at 48 h in data set [2] came out at 9920 nM.

As for `CC(C)(C)c1ccc(CN2CCC(CNC(=O)c3cc(-c4ccccc4Cl)cs3)C2)cc1` (stereo not drawn) [TCMDC-134445], the “Ratio IC50 HepG2/IC50 P. falciparum” value in data set [1] amounted to 12. In addition, the IC50 in data set [1] (setting [6]) is 0.69 µM; in data set [3], 856 nM. Besides, in data set [2], the IC50 at 48 h came to 8300 nM.

With `COc1ccc2c(c1)CC(C)(C)NC2CCCCCCCCC1NC(C)(C)Cc2cc(OC)ccc21` (stereo not drawn) [TCMDC-137935], the “Ratio IC50 HepG2/IC50 P. falciparum” value in data set [1] worked out at 7. Moreover, the values for the IC50 in data set [1] (setting [6]) and in data set [3] were 0.79 µM and 1300 nM, respectively. Moreover, the IC50 at 48 h in data set [2] came out at 5320 nM.

With `N=C(NCCCCC1CCCCC1)c1cccc(C(=N)NCCCCC2CCCCC2)n1` [TCMDC-137452], the “Ratio IC50 HepG2/IC50 P. falciparum” value in data set [1] is given as 7. Also, the figures for the IC50 in data set [1] (setting [6]) and in data set [3] were 0.22 µM and 395 nM, respectively. In addition, the IC50 at 48 h in data set [2] stood at 1600 nM.

As for `CC(C)(C)c1ccc(CN2CCC(CNC(=O)c3cc(-c4ccccc4F)cs3)C2)cc1` (stereo not drawn) [TCMDC-134443], the “Ratio IC50 HepG2/IC50 P. falciparum” value in data set [1] is on record as 22. For the same compound, the values for the IC50 in data set [1] (setting [6]) and in data set [3] were 0.34 µM and 564 nM, respectively. Moreover, the IC50 at 48 h in data set [2] was 7400 nM.

For the compound `Fc1ccc2c(NN=Cc3ccccc3)ccnc2c1` [TCMDC-142100], the inhibition at 5 µM in data set [4] was 16.3%. Further, the “% Inhibition” value in data set [1] (P. falciparum gametocytes) was 16%.

Take `S=C(NN=Cc1ccccn1)NC1CC2C=CC1C2` (stereo not drawn) [TCMDC-125752]: the “Ratio IC50 HepG2/IC50 P. falciparum” value in data set [1] is on record as 6. Moreover, the IC50 is 0.11 µM in data set [1] (setting [6]), 0.112 µM in data set [1] (setting [7]) and 721 nM in data set [3]. Further, the IC50 at 48 h in data set [2] is 700 nM.

For the compound `COc1cc2nc(NCCCN3CCCCC3)nc(NCc3ccccc3)c2cc1OC` [TCMDC-132012], the “Ratio IC50 HepG2/IC50 P. falciparum” value in data set [1] is 30. The IC50 was 0.3 µM in data set [1] (setting [6]), 0.297 µM in data set [1] (setting [7]) and 998 nM in data set [3]. For the same compound, the IC50 at 48 h in data set [2] came to 8940 nM.

On to `COc1cc(NCCCNCc2cn(Cc3cc(Br)cc(Br)c3)c3ccccc23)nc2ccccc12` [TCMDC-140677], for which, in data set [1], the “Ratio IC50 HepG2/IC50 P. falciparum” value is listed as 10. Further, the IC50 in data set [1] (setting [6]) is 0.59 µM; in data set [3], 185 nM. In data set [2], the IC50 at 48 h is 6130 nM.

As for `S=C(NN=Cc1ccccn1)Nc1ccc(Cl)c(Cl)c1` [TCMDC-125522], the “Ratio IC50 HepG2/IC50 P. falciparum” value in data set [1] amounted to 130. Further, the IC50 in data set [1] (setting [6]) is 0.07 µM; in data set [3], 768 nM. For the same compound, the IC50 at 48 h in data set [2] was 9100 nM.

With `Clc1ccc(C=NNc2ccnc3ccccc23)cc1` [TCMDC-142099], the inhibition at 5 µM in data set [4] was -69.1%. Besides, in data set [1] (P. falciparum gametocytes), the “% Inhibition” value is -69%.

`COc1cccc2c(NN=Cc3cccc(Cl)c3)cc(C)nc12` [TCMDC-142117]: the inhibition at 5 µM in data set [4] was found to be 27.1%.

In the case of `COc1ccc2c(NN=Cc3ccccc3)ccnc2c1` [TCMDC-142111], in data set [4], the inhibition at 5 µM is 89.4%.

Take `CCCC(=O)c1cnc2c(Oc3cc(Cl)ncn3)cccc2c1Nc1ccccc1C` [TCMDC-142329]: in data set [4], the inhibition at 5 µM is -26%.

Regarding `COc1cccc2c(NN=Cc3ccccc3Cl)cc(C)nc12` [TCMDC-142116], in data set [4], the inhibition at 5 µM was 23.3%.

Consider `CCCCN(CCCC)CC(O)c1cc(-c2ccc(Cl)cc2)nc2c(Cl)cc(Cl)cc12` (stereo not drawn) [TCMDC-142268], for which the inhibition at 5 µM in data set [4] is -20.8%.

For the compound `Cc1cc(NN=Cc2ccc(Cl)cc2)c2cccc(C)c2n1` [TCMDC-142115], the inhibition at 5 µM in data set [4] is -40.8%.

Regarding `COc1cccc2c(Oc3ccccc3C)ccnc12` [TCMDC-142320], in data set [4], the inhibition at 5 µM was -32.5%.

Turning to `Cc1ccccc1Nc1cc(Nc2ccccc2C)c2ccccc2n1` [TCMDC-142337], the inhibition at 5 µM in data set [4] came to 98.8%.

Take `CCOc1ccc2c(NN=Cc3ccccc3OC)cc(C)nc2c1` [TCMDC-142203]: the inhibition at 5 µM in data set [4] stood at 87.4%.

Regarding `CCCCN(CCCC)CCC(O)C(=Cc1ccc(Cl)cc1Cl)c1ccc(C(F)(F)F)cc1N` (stereo not drawn) [TCMDC-142318], the inhibition at 5 µM in data set [4] was -17.1%.

For `Fc1ccccc1C=NNc1ccnc2ccc(C(F)(F)F)cc12` [TCMDC-142104], the inhibition at 5 µM in data set [4] was -68.2%.

`Cc1cc(NN=Cc2cccc(F)c2)c2ccc(F)cc2n1` [TCMDC-142174]: the inhibition at 5 µM in data set [4] was -36.6%.

As for `Oc1ccc(CCCc2cc(Oc3c(I)cc(CCc4ncc[nH]4)cc3I)ccc2O)cc1` [TCMDC-142308], in data set [4], the inhibition at 5 µM is -67%.

These data come from paper PMC4552634, “A New Set of Chemical Starting Points with Plasmodium falciparum Transmission-Blocking Potential for Antimalarial Drug Discovery” (PLoS ONE, 2015).
